Source: patent US10618903B2, “Heteroaryl substituted aminopyridine compounds” (BRISTOL-MYERS SQUIBB COMPANY, priority 2015, dated 2020)

What was measured:
[1] = molecular target: IRAK4 (Homo sapiens (Human), UniProt Q9NWZ3); test: IRAK4 Inhibition Assay; assay type: biochemical; settings: ATP 500 μM; IRAK4 0.6 nM
Outline: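 Readout: electrophoretic (LabChip) separation of fluorescent peptide substrate from phosphorylated product after EDTA quench. Reactions ran 60 min at room temperature with 0.6 nM IRAK4, 1.5 μM peptide and 500 μM ATP; inhibition referenced to no-enzyme (100%) and vehicle (0%) controls.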

[2] = Caco Permeability Assay; assay type: in vitro ADME; settings: human, Caco-2, Caco-2 cells, 3 μM compound
[3] = system: IL-6 levels in human whole blood stimulated with a TLR2 agonist; test: IRAK4 Whole Blood Assay (lipoteichoic acid/TLR2-stimulated IL-6); assay type: cell-based; settings: lipoteichoic acid 10 μg/mL, IL-6 readout
Outline: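 IL-6 was quantified by cytometric bead assay in supernatants of human blood (ACD-A) stimulated for 5 h with lipoteichoic acid at 10 μg/mL final. Compound exposure preceded stimulation for 60 min at 37 °C, 5% CO2.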

IRAK4, sequence (Q9NWZ3 whole entry): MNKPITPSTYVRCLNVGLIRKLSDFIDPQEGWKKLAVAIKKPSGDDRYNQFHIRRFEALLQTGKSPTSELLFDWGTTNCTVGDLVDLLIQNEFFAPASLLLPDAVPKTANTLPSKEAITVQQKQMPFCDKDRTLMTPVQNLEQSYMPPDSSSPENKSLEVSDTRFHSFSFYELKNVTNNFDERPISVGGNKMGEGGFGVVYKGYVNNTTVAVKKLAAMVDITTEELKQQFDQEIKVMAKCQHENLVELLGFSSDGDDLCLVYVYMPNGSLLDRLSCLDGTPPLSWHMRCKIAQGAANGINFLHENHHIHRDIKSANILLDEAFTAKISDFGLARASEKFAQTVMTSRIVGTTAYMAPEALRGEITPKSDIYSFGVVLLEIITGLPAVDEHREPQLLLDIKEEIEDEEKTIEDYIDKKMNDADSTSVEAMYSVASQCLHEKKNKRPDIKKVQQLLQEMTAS

SMILES | IC50 [1] [nM] | Papp at 2 h, 3 µM [2] [×10⁻⁶ cm/s] | EC50 ([3]; Homo sapiens) [nM] | EC50 [3] [nM]
CC(C)(O)[C@H](F)CNC(=O)c1cnc(-c2cnn3cc(C#N)cnc23)cc1NCC(F)F [Example 171, (R)-6-(6-cyanopyrazolo[1,5-a]pyrimidin-3-yl)-4-((2,2-difluoroethyl)amino)-N-(2-fluoro-3-hydroxy-3-methylbutyl)nicotinamide] | 6 | 1.9 | 360 | –
CC(F)(F)CNc1cc(-c2cnn3cc(C#N)cnc23)ncc1C(=O)NC[C@@H](F)C(C)(C)O [Example 172, (R)-6-(6-cyanopyrazolo[1,5-a]pyrimidin-3-yl)-4-((2,2-difluoropropyl)amino)-N-(2-fluoro-3-hydroxy-3-methylbutyl)nicotinamide] | 4 | 4.2 | 460 | –
CC(C)Nc1cc(-c2cnc3cccnn23)ncc1C(=O)NC[C@@H](F)C(C)(C)O [Example 177, (R)—N-(2-fluoro-3-hydroxy-3-methylbutyl)-6-(imidazo[1,2-b]pyridazin-3-yl)-4-(isopropylamino)nicotinamide] | 10 | 12.6 | – | 880
CCNc1cc(-c2cnc3cc(Cl)cnn23)ncc1C(=O)NC[C@@H](F)C(C)(C)O [Example 178, (R)-6-(7-chloroimidazo[1,2-b]pyridazin-3-yl)-4-(ethylamino)-N-(2-fluoro-3-hydroxy-3-methylbutyl)nicotinamide] | 4 | 21.5 | 710 | –
CCCNc1cc(-c2cnc3cc(Cl)cnn23)ncc1C(=O)NC[C@@H](F)C(C)(C)O [Example 179, (R)-6-(7-chloroimidazo[1,2-b]pyridazin-3-yl)-N-(2-fluoro-3-hydroxy-3-methylbutyl)-4-(propylamino)nicotinamide] | 3 | 16.8 | 700 | –
CC(C)(O)[C@H](F)CNC(=O)c1cnc(-c2cnc3cc(Cl)cnn23)cc1NC1CCC1 [Example 180, (R)-6-(7-chloroimidazo[1,2-b]pyridazin-3-yl)-4-(cyclobutylamino)-N-(2-fluoro-3-hydroxy-3-methylbutyl)nicotinamide] | 2 | 16.5 | 930 | –
C[C@@H](CO)Nc1cc(-c2cnc3cc(Cl)cnn23)ncc1C(=O)NC[C@@H](F)C(C)(C)O [Example 181, 6-(7-chloroimidazo[1,2-b]pyridazin-3-yl)-N—((R)-2-fluoro-3-hydroxy-3-methylbutyl)-4-(((S)-1-hydroxypropan-2-yl)amino)nicotinamide] | 3 | < 1.5 | 100 | –
CC(C)(O)[C@H](F)CNC(=O)c1cnc(-c2cnc3cc(C#N)cnn23)cc1NC1CCC1 [Example 183, (R)-6-(7-cyanoimidazo[1,2-b]pyridazin-3-yl)-4-(cyclobutylamino)-N-(2-fluoro-3-hydroxy-3-methylbutyl)nicotinamide] | 2 | 8.9 | 750 | –
Cc1cnn2c(-c3cc(NC4CC4)c(C(=O)NC[C@@H](F)C(C)(C)O)cn3)cnc2c1 [Example 184, (R)-4-(cyclopropylamino)-N-(2-fluoro-3-hydroxy-3-methylbutyl)-6-(7-methylimidazo[1,2-b]pyridazin-3-yl)nicotinamide] | 5 | 3.4 | 510 | –
Cc1cnn2c(-c3cc(NC4CCC4)c(C(=O)NC[C@@H](F)C(C)(C)O)cn3)cnc2c1 [Example 185, (R)-4-(cyclobutylamino)-N-(2-fluoro-3-hydroxy-3-methylbutyl)-6-(7-methylimidazo[1,2-b]pyridazin-3-yl)nicotinamide] | 7 | 4.7 | 820 | –
CC(C)Nc1cc(-c2cnc3cc(C#N)cnn23)ncc1C(=O)NCCC(C)(C)O [Example 186, 6-(7-cyanoimidazo[1,2-b]pyridazin-3-yl)-N-(3-hydroxy-3-methylbutyl)-4-(isopropylamino) nicotinamide] | 5 | 12.2 | 250 | –
CCNc1cc(-c2cnc3cc(C#N)cnn23)ncc1C(=O)NC[C@@H](F)C(C)(C)O [Example 188, (R)-6-(7-cyanoimidazo[1,2-b]pyridazin-3-yl)-4-(ethylamino)-N-(2-fluoro-3-hydroxy-3-methylbutyl)nicotinamide] | 5 | 6.7 | 240 | –
CC(C)(F)[C@H](F)CNC(=O)c1cnc(-c2cnc3cc(Cl)cnn23)cc1NC1COC1 [Example 189, (R)-6-(7-chloroimidazo[1,2-b]pyridazin-3-yl)-N-(2,3-difluoro-3-methylbutyl)-4-(oxetan-3-ylamino)nicotinamide] | 7 | 31.2 | 490 | –
CC(C)(O)[C@H](F)CNC(=O)c1cnc(-c2cnc3cc(Cl)cnn23)cc1NCCC(F)(F)F [Example 190, (R)-6-(7-chloroimidazo[1,2-b]pyridazin-3-yl)-N-(2-fluoro-3-hydroxy-3-methylbutyl)-4-((3,3,3-trifluoropropyl)amino)nicotinamide] | 6 | 15.3 | 610 | –
CC(C)(C)CCNC(=O)c1cnc(-c2cnc3cc(Cl)cnn23)cc1NC1COC1 [Example 192, 6-(7-chloroimidazo[1,2-b]pyridazin-3-yl)-N-(3,3-dimethylbutyl)-4-(oxetan-3-ylamino)nicotinamide] | 10 | 29.9 | 500 | –
CC(C)Nc1cc(-c2cnc3cc(C#N)cnn23)ncc1C(=O)NC[C@H](F)C(C)(C)O [Example 194, (S)-6-(7-cyanoimidazo[1,2-b]pyridazin-3-yl)-N-(2-fluoro-3-hydroxy-3-methylbutyl)-4-(isopropylamino)nicotinamide] | 8 | 4.2 | 230 | –
CC(C)(O)[C@H](F)CNC(=O)c1cnc(-c2cnc3cc(C#N)cnn23)cc1NC1CC(F)(F)C1 [Example 195, (R)-6-(7-cyanoimidazo[1,2-b]pyridazin-3-yl)-4-((3,3-difluorocyclobutyl)amino)-N-(2-fluoro-3-hydroxy-3-methylbutyl)nicotinamide] | 4 | 3.7 | 700 | –
CC(C)Nc1cc(-c2cnc3cc(C#N)cnn23)ncc1C(=O)NCC(F)C1CCNCC1 (stereo not drawn) [Example 197, 6-(7-cyanoimidazo[1,2-b]pyridazin-3-yl)-N-(2-fluoro-2-(piperidin-4-yl)ethyl)-4-(isopropylamino)nicotinamide] | 2 | < 1.5 | 280 | –
CC1(Nc2cc(-c3cnc4cc(Cl)cnn34)ncc2C(=O)NC[C@H](F)C(C)(C)O)CC1 [Example 198, (S)-6-(7-chloroimidazo[1,2-b]pyridazin-3-yl)-N-(2-fluoro-3-hydroxy-3-methylbutyl)-4-((1-methylcyclopropyl)amino) nicotinamide] | 1 | 18.4 | 470 | –
CC(C)(O)[C@H](F)CNC(=O)c1cnc(-c2cnc3cc(Cl)cnn23)cc1NC1CC(F)C1 (stereo partly drawn) [Example 199, (R)-6-(7-chloroimidazo[1,2-b]pyridazin-3-yl)-N-(2-fluoro-3-hydroxy-3-methylbutyl)-4-((3-fluorocyclobutyl)amino)nicotinamide] | 4 | 15.8 | 550 | –
CC(C)(O)[C@H](F)CNC(=O)c1cnc(-c2cnc3cc(C#N)cnn23)cc1NC1CCOC1 (stereo partly drawn) [Example 201, 6-(7-cyanoimidazo[1,2-b]pyridazin-3-yl)-N—((R)-2-fluoro-3-hydroxy-3-methylbutyl)-4-((tetrahydrofuran-3-yl)amino) nicotinamide] | 3 | < 1.5 | 80 | –
CC(C)(O)[C@H](F)CNC(=O)c1cnc(-c2cnc3cc(C#N)cnn23)cc1NCCC(F)(F)F [Example 205, (R)-6-(7-cyanoimidazo[1,2-b]pyridazin-3-yl)-N-(2-fluoro-3-hydroxy-3-methylbutyl)-4-((3,3,3-trifluoropropyl)amino)nicotinamide] | 4 | 4.5 | 210 | –
CC(C)Nc1cc(-c2cnc3cc(C#N)cnn23)ncc1C(=O)NCCc1ccccn1 [Example 216, 6-(7-cyanoimidazo[1,2-b]pyridazin-3-yl)-4-(isopropylamino)-N-(2-(pyridin-2-yl)ethyl)nicotinamide] | 8 | 23.9 | 310 | –
CC(C)Nc1cc(-c2cnc3cc(C#N)cnn23)ncc1C(=O)NCCC1(O)CCCC1 [Example 217, 6-(7-cyanoimidazo[1,2-b]pyridazin-3-yl)-N-(2-(1-hydroxycyclopentyl)ethyl)-4-(isopropylamino)nicotinamide] | 2 | 25.6 | 300 | –
CC(C)(O)CCNC(=O)c1cnc(-c2cnc3cc(Cl)cnn23)cc1NC1COC1 [Example 218, 6-(7-chloroimidazo[1,2-b]pyridazin-3-yl)-N-(3-hydroxy-3-methylbutyl)-4-(oxetan-3-ylamino)nicotinamide] | 5 | 2.1 | 220 | –
CC(C)(O)[C@H](F)CNC(=O)c1cnc(-c2cnn3cc(Cl)cnc23)cc1Nc1cnn(CC(F)(F)F)c1 [Example 226, (R)-6-(6-chloropyrazolo[1,5-a]pyrimidin-3-yl)-N-(2-fluoro-3-hydroxy-3-methylbutyl)-4-((1-(2,2,2-trifluoroethyl)-1H-pyrazol-4-yl)amino)nicotinamide] | 3 | 3.6 | – | 210
